# In article PMC11088877, “AMP-activated protein kinase can be allosterically activated by ADP but AMP remains the key activating ligand” (Biochemical Journal, 2024):
# Several values for one entry are separate records, joined by “and”; a condition that tells them apart may be missing. Equal entries are not always repeated.
# Tested on: rat liver AMPK
# Assay: Allosteric activation and inhibition of native rat liver AMPK by AMP and ADP (SAMS peptide kinase assay)
# Format: biochemical
# Set-up: IC50/EC50: unit not given beside the values
# Settings: for maximal extent of activation: Discussion (for ADP: rat liver AMPK and human α2β2γ1 complex); for effect of CD73 in the assay on allosteric activation by the nucleotide: AMP 0.3 mM or ADP 1 mM, CD73 550 ng
# Text: To study allosteric effects, we initially used a preparation of native rat liver AMPK [4]. While not homogeneous, this preparation has a high specific kinase activity (1.3 µmol/min/mg) and is a combination of the α1, α2, β1, β2 and γ1 subunit isoforms (Supplementary Figure S1). Being from a mammalian source both β subunit isoforms would be N-myristoylated and we have shown previously that the preparation is not contaminated with any protein phosphatases that dephosphorylate Thr172 [4]. We assessed the potential allosteric effects of both AMP and ADP at three different concentrations of ATP. We maintained Mg^2+ ions at a constant 4.8 mM excess above total ATP, a design that ensures that the concentration of the Mg.ATP^2− complex varies as a fixed proportion of total ATP [19].
# As previously reported, with AMP we obtained bell-shaped curves due to activation at low concentrations combined with inhibition at higher concentrations (Figure 1). We have previously shown that the allosteric activation is due to binding of AMP to one or more of the regulatory sites on the γ subunit, whereas the inhibition is due to binding of AMP at the catalytic site within the α subunit kinase domain [4]. Consistent with the fact that ATP competes with AMP at both sites, as the ATP concentration was progressively raised from 0.2 to 1.0 and 5 mM, the bell-shaped curves shifted to the right, towards higher concentrations of AMP. The data were fitted to an equation for activation at one site and inactivation at a second site, as detailed in the legend to Figure 1. The best-fit parameters are shown in Supplementary Table S1, and these values were used to draw the curves in Figure 1A–C; the best-fit estimates for EC50 and IC50 are indicated by dashed vertical lines, faint lines for AMP and heavier lines for ADP.
# Figure 1. Allosteric activation of rat liver AMPK by AMP and ADP at three different concentrations of ATP. (A) 200 µM ATP; (B) 1 mM ATP; (C) 5 mM ATP. [Mg^2+] was maintained at a constant excess of 4.8 mM above [ATP] as recommended previously. Results (mean ± SD, n = 2) were fitted to the equation: Y = 1 + (((Activation-1) × X)/(EC50 + X))-(((activation) × X)/(IC50 + X)), where Y is the activity, X is the concentration of AMP or ADP, Activation is the extrapolated maximal activation by AMP or ADP, EC50 is the concentration of AMP or ADP causing half-maximal activation, and IC50 is the concentration of AMP or ADP causing half-maximal inhibition. The dashed vertical lines show the estimated EC50 and IC50 values, faint lines for AMP and bold lines for ADP. A reliable estimate of EC50 could not be computed for ADP at 0.2 mM ATP (graph (A)). Best-fit values of all parameters used to generate the curves are listed in Supplementary Table S1.
# Figure 2. Allosteric activation of rat liver AMPK by AMP and ADP in the presence and absence of the nucleotidase CD73. Allosteric activation was assessed as in Figure 1 with a single fixed concentration of AMP or ADP (0.3 or 1 mM respectively) in the presence or absence of CD73 (550 ng). Statistical significance of differences in results (mean ± SEM, n = 3) were assessed by two-way ANOVA. Effect of nucleotide: ****P < 0.0001; effect of CD73: ^††††P < 0.0001, ns, not significant.
# AMPK assays measured the transfer of radioactivity from [γ-^33P]ATP to a peptide substrate, which was separated from unreacted ATP by binding to P81 paper. This assay was described previously except that we used [γ-^33P] rather than [γ-^32P]ATP. In some assays (specified in Figure legends) the concentration of ATP was increased from 0.2 to 1 or 5 mM ATP, with MgCl2 concentrations maintained at a constant 4.8 mM excess above the concentration of ATP [19]. Where allosteric activation by AMP or ADP was being studied, we used the SAMS peptide as substrate. For all other assays the AMARA peptide was used.
SMILES,maximal extent of activation (5 mM ATP),"Activation (extrapolated maximal activation) (rat liver AMPK, 0.2 mM ATP)","EC50 (rat liver AMPK, 0.2 mM ATP) [µM]","IC50 (rat liver AMPK, 0.2 mM ATP) [µM]","IC50/EC50 (rat liver AMPK, 0.2 mM ATP)","Activation (extrapolated maximal activation) (rat liver AMPK, 1.0 mM ATP)","EC50 (rat liver AMPK, 1.0 mM ATP) [µM]","IC50 (rat liver AMPK, 1.0 mM ATP) [µM]","IC50/EC50 (rat liver AMPK, 1.0 mM ATP)","Activation (extrapolated maximal activation) (rat liver AMPK, 5.0 mM ATP)","EC50 (rat liver AMPK, 5.0 mM ATP) [µM]","IC50 (rat liver AMPK, 5.0 mM ATP) [µM]","IC50/EC50 (rat liver AMPK, 5.0 mM ATP)","degree of activation over basal (rat liver AMPK, 0.2 to 5 mM ATP)",effect of CD73 in the assay on allosteric activation by the nucleotide (rat liver AMPK),"observed maximal extent of activation above basal (rat liver AMPK, 1 mM ATP)","observed maximal extent of activation above basal (rat liver AMPK, 5 mM ATP)"
Nc1ncnc2c1ncn2[C@@H]1O[C@H](COP(=O)(O)O)[C@@H](O)[C@H]1O [AMP],3 fold,2.9 (2.8 -3.0) fold,6.4,1700,270,2.8 (2.7-2.9) fold,14,6900,490,3.7 (3.5-3.8) fold,36,17000,~500 and 470,3- to 4 fold,completely abolished,,
Nc1ncnc2c1ncn2[C@@H]1O[C@H](COP(=O)(O)OP(=O)(O)O)[C@@H](O)[C@H]1O [ADP],≈ 1.5 fold,no activation was detectable and none,,400,,2.4 fold and 2.4 (1.8 -??) fold,122,690,6 and 5.7,2.0 fold and 2.0 (1.7 -2.8) fold,220,4000,18,,did not significantly affect,≈ 25%,≈ 50%
